Series [1] can be described thus: Stability in pooled human liver microsomes. In kind it is in vitro ADME.
For another series, the target named is CYP3A4 (Homo sapiens, UniProt P08684). In words: CYP inhibition/activation in pooled human liver microsomes. Type of series: in vitro ADME.
Another series has as its target CYP2D6 (Homo sapiens, UniProt P10635). The series is described as above. In kind it is in vitro ADME.
Another series has as its target T1, CYP2C8 (Homo sapiens, UniProt P10632).
T1 sequence (P10632 1-490): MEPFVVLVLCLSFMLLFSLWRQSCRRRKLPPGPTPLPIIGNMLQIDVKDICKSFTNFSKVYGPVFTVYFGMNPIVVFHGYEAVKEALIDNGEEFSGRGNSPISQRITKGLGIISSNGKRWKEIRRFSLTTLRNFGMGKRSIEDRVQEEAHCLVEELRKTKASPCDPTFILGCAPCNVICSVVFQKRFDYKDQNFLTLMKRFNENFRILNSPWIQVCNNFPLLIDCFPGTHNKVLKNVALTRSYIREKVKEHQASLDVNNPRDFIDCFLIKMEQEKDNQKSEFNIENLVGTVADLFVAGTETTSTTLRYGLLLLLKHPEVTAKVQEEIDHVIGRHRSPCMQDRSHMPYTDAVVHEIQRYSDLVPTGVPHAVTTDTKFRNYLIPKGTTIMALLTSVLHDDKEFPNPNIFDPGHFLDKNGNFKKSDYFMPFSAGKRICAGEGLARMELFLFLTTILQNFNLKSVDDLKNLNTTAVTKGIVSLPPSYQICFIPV
Described as above. Type of series: in vitro ADME.

Series [2] has as its target T2, UGT 1A1 (Homo sapiens, UniProt P22309).
T2 sequence (P22309 26-533): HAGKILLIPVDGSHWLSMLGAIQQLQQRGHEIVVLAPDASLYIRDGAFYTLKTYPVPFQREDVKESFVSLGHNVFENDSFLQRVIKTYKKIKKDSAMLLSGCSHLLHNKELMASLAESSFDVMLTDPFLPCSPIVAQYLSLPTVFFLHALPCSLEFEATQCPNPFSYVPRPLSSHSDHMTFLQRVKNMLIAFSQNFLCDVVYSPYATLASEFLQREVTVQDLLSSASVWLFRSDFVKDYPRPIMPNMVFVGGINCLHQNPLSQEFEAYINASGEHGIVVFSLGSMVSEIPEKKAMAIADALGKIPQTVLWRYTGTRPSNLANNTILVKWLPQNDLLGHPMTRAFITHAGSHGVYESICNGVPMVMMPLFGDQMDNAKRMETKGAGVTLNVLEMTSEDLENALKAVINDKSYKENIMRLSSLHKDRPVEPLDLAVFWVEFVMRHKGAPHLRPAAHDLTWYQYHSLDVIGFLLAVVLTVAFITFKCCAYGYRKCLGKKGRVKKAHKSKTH
In words: UGT substrate assay.

The next series deals with T3, UGT 1A4 (Homo sapiens, UniProt P22310).
T3 sequence (P22310 29-534): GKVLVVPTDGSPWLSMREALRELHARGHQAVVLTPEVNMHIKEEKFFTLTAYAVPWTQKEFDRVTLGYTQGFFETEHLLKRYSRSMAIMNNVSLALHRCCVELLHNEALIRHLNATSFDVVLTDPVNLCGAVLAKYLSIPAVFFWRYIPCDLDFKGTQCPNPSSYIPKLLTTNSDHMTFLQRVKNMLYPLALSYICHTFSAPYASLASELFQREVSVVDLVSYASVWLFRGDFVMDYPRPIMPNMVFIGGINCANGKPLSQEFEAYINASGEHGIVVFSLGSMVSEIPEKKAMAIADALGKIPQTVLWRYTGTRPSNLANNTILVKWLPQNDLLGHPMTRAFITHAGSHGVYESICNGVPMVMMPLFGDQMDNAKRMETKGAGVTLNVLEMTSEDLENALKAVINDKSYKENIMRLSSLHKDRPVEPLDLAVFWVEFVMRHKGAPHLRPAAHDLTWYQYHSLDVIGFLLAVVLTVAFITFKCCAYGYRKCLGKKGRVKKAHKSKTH
In words: UGT substrate assay.

The next series concerns the target T4, UGT 1A6 (Homo sapiens, UniProt P19224).
T4 sequence (P19224 27-532): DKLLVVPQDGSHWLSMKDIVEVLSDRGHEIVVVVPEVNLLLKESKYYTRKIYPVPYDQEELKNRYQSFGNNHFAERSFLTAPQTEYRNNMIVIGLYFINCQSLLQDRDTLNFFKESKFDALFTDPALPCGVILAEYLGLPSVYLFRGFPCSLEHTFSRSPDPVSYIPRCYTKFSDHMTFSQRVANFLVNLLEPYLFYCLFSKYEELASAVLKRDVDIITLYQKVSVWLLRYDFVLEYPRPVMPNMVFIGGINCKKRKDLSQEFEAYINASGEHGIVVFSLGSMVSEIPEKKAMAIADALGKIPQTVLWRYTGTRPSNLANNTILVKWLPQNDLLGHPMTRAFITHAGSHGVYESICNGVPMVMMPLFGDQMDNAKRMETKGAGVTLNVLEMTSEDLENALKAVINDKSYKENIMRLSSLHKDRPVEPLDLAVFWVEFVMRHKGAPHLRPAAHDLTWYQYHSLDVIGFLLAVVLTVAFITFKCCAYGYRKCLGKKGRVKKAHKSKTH
In words: UGT substrate assay.

The next series deals with T5, UGT 1A9 (Homo sapiens, UniProt O60656).
T5 sequence (O60656 26-530): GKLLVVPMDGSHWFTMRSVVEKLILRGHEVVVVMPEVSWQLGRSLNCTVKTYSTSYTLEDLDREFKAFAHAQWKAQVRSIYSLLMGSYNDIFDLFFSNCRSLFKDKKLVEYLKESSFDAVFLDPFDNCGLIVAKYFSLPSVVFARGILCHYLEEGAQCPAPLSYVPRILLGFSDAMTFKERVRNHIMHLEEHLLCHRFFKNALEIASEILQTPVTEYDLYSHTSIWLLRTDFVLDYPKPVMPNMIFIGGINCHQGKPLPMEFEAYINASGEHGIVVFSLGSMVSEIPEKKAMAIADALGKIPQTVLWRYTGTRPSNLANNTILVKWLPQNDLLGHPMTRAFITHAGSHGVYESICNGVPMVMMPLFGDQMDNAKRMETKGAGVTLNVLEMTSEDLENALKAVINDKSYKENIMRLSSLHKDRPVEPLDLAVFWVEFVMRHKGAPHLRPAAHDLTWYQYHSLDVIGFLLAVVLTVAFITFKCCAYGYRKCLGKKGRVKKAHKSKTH
In words: UGT substrate assay.

The target of a further series is T6, UGT 2B7 (Homo sapiens, UniProt P16662).
T6 sequence (P16662 24-529): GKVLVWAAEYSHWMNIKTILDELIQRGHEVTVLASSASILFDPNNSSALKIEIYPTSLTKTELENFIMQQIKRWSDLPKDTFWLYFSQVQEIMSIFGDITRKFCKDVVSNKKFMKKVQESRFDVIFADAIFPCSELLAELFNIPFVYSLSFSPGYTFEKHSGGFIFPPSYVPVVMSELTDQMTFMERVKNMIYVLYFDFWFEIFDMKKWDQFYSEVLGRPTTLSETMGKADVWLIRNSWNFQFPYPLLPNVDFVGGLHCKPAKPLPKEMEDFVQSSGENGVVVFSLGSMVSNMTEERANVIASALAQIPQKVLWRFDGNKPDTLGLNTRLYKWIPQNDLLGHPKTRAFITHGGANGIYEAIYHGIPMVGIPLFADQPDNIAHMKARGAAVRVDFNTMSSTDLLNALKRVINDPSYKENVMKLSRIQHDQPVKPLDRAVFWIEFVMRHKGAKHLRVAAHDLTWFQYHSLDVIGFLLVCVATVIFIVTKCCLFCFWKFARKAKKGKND
In words: UGT substrate assay.

The next series concerns HIV-1. In words: microbe, parasite or virus in culture. The settings on record: Human immunodeficiency virus 1, MAGI.
Another series addresses HIV-1 integrase (Human immunodeficiency virus type 1 group M subtype B, UniProt P04585). In words: Inhibition of the strand transfer. In kind it is biochemical.
The target in series [3] is T2, UGT 1A1. The settings on record: cited from earlier work.

“Also recorded” adds a separate entry of the source. Where two headings read alike, the source gives them in different places. Bounds are passed on as bounds.

Chain of CYP3A4 (P08684 whole entry): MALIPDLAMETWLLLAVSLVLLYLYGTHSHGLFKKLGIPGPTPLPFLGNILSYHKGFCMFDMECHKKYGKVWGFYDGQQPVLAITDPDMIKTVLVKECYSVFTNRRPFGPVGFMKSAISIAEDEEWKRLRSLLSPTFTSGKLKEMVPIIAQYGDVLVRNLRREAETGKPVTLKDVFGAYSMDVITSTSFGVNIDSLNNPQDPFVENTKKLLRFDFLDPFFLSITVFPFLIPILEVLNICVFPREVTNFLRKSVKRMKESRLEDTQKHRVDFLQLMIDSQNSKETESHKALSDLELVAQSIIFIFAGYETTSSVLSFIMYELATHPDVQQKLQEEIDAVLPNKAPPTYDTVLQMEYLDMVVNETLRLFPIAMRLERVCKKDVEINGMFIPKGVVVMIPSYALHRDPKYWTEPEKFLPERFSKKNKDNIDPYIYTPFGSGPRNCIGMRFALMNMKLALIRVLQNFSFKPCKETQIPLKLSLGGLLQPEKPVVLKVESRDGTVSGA
Chain of CYP2D6 (P10635 whole entry): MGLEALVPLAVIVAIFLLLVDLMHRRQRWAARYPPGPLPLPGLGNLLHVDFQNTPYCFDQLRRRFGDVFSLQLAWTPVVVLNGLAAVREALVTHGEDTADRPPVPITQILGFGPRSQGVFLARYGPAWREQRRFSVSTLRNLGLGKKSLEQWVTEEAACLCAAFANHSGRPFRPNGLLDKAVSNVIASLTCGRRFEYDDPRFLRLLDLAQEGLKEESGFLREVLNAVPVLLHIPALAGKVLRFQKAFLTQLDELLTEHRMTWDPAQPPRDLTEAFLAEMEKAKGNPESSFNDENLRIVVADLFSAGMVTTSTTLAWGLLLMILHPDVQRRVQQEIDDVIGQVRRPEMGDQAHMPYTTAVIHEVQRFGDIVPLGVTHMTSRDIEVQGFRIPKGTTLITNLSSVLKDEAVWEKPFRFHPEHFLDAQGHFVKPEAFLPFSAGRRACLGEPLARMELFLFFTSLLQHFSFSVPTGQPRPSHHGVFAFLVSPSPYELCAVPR

As for `O=C(O)/C(O)=C/C(=O)c1cc(Cc2ccc(F)cc2F)cn(Cc2ccccc2F)c1=O` [Compound 2, 4-(5-(2,4-difluorobenzyl)-1-(2-fluoro-benzyl)-2-oxo-1,2-dihydro-pyridin-3-yl)-2-hydroxy-4-oxobut-2-enoic acid], in series [1], the “stability in pooled human liver microsomes” value was “good stability; also recorded: relatively stable”. Besides, at CYP3A4, the “activation of CYP3A4” value is “did not exhibit any activation” and the “inhibition of CYP3A4” value is “not an inhibitor”. For the same compound, on CYP2D6, the “activation of CYP2D6” value is given as “did not exhibit any activation” and the “inhibition of CYP2D6” value is reported as “not an inhibitor”. In addition, on CYP2C8, the “activation of CYP2C8” value is reported as “did not exhibit any activation”. The “substrate activity towards UGT 1A1” value at UGT 1A1 [2] is listed as “not a substrate”. Further, the “substrate activity towards UGT 1A4” value on UGT 1A4 is “not a substrate”. Also, the “substrate activity towards UGT 1A6” value on UGT 1A6 is listed as “not a substrate”. On UGT 1A9, the “substrate activity towards UGT 1A9” value was “not a substrate”. Further, the “substrate activity towards UGT 2B7” value at UGT 2B7 was “not a substrate”. Further, the EC50 with HIV-1 (read-out: anti-HIV-1 EC50) is no more than 500 nM.
The compound `CC(C)OC(=O)/C(O)=C/C(=O)c1cc(Cc2ccc(F)cc2F)cn(Cc2ccccc2F)c1=O` [Compound 10] had an IC50 against HIV-1 integrase greater than 475 nM. The “conversion to compound 2 by hydrolysis in human liver microsomes” value in series [1] (in 15 minutes) was 100%.
Take `O=C(O)C(=O)C=C(O)c1cc(Cc2ccc(F)cc2F)cn(Cc2ccc(F)cc2F)c1=O` [Entry 11, 4-(1,5-bis(2,4-difluorobenzyl)-2-oxo-1,2-dihydropyridin-3-yl)-4-hydroxy-2-oxobut-3-enoic acid]: the IC50 against HIV-1 integrase was determined as 5.5 ± 1.5 nM. Moreover, the EC50 is 300 nM in the series with HIV-1 and no more than 500 nM in the series with HIV-1 (read-out: anti-HIV-1 EC50).
Regarding `C[C@@H]1CCO[C@H]2Cn3cc(C(=O)NCc4ccc(F)cc4F)c(=O)c(O)c3C(=O)N12` [S/GSK 1349572], on UGT 1A1 [3] (primary route of metabolism and clearance is glucuronidation), the “substrate activity towards UGT 1A1” value is recorded as “substrate for UGT 1A1”.
As to `Cc1nnc(C(=O)NC(C)(C)c2nc(C(=O)NCc3ccc(F)cc3)c(O)c(=O)n2C)o1` [raltegravir, reference compound], at UGT 1A1 [3] (humans), the “major mechanism of clearance in humans” value is given as “UGT 1A1-mediated glucuronidation”. Besides, in the series on HIV-1 (read-out: anti-HIV-1 EC50), the EC50 was less than 6 nM.

The record behind these values is PMC3274775 (ACS medicinal chemistry letters, 2011).
